From ChEMBL document CHEMBL1143583, “Anchor-GRIND: filling the gap between standard 3D QSAR and the GRid-INdependent descriptors” (J Med Chem, 2005)
pIC50: −log10 of the molar value.

biological target: Acetylcholinesterase (Homo sapiens, UniProt P22303); assay: Inhibitory concentration against Acetylcholinesterase; (range = 2-20 uM); details: not given
Sequence (P22303 whole entry): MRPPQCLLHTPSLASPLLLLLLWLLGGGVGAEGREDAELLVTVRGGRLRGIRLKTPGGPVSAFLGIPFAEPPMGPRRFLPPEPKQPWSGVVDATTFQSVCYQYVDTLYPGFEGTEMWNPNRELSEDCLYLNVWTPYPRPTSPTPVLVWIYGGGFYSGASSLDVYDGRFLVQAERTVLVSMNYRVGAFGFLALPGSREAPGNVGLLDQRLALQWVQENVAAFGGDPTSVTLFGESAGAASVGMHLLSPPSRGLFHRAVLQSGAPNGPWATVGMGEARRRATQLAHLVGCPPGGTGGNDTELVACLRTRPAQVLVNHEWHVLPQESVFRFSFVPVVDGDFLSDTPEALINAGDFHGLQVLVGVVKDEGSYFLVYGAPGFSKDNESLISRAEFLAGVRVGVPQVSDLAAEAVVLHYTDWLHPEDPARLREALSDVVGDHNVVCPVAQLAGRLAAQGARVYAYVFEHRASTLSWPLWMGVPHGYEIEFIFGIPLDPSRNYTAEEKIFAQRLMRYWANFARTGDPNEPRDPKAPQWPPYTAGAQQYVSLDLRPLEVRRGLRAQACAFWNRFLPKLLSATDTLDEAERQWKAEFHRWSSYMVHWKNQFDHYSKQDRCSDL

SMILES | pIC50
O=C1CN(CCN2CCOCC2)C(=O)CN1CCC(c1ccccc1)c1ccccc1 | 4.70
COc1ccc(CCN2CC(=O)N(CCc3ccccn3)CC2=O)cc1OC | 4.70
O=C1CN(CCN2CCCC2)C(=O)CN1CCCn1ccnc1 | 4.70
CCN(CC)CCN1CC(=O)N(CCc2ccccc2)CC1=O | 4.70
CCN(CC)CCCN1CC(=O)N(C2CC2)CC1=O | 4.70
CC(C)N(CCN1CC(=O)N(CCc2ccc(Cl)cc2Cl)CC1=O)C(C)C | 4.70
CC1CCCCN1CCCN1CC(=O)N(CCc2ccc(F)cc2)CC1=O (stereo not given) | 4.70

biological target: Genome polyprotein (Hepatitis C virus genotype 1a (isolate 1) (HCV), UniProt P26664); assay: Inhibitory concentration against hepatitis C virus NS3 protease (IC50 spans 2.5 log units); parameters: species or system Hepacivirus hominis; details: read-out: Log 1/IC50 (converted)
Sequence (P26664 1027-1657 limits assumed): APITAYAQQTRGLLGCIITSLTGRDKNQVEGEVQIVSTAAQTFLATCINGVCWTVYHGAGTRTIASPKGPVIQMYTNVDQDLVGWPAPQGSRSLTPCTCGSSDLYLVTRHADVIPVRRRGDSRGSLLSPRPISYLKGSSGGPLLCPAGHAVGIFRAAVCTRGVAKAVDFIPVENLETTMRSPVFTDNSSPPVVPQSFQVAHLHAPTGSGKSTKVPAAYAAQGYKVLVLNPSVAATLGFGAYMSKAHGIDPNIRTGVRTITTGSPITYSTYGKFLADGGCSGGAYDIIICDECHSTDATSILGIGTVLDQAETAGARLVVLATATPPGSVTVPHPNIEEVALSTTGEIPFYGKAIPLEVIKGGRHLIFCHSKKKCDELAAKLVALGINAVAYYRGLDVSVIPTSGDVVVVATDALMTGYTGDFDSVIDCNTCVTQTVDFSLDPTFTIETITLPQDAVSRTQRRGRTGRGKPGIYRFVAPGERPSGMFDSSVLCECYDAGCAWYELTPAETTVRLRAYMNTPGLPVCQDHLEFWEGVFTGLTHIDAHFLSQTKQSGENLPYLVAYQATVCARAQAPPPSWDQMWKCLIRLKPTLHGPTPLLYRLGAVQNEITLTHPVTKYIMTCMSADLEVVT

IC50 [µM] | SMILES
15.8 | COc1ccc2nccc(O[C@H]3CC(C(=O)[C@@H](NC(=O)[C@@H](NC(C)=O)C4CCCCC4)C(C)C)[C@H](C(=O)CC4(C(=O)O)CC4)C3)c2c1 (stereo not given in full)
79.4 | CC(=O)N[C@H](C(=O)N[C@H](C(=O)C1C[C@H](Oc2ccccc2)C[C@H]1C(=O)CC1(C(=O)O)CC1)C(C)C)C1CCCCC1 (stereo not given in full)
31.6 | CC(=O)N[C@H](C(=O)N[C@H](C(=O)C1C[C@H](Oc2ccc(-c3ccccc3)cc2)C[C@H]1C(=O)CC1(C(=O)O)CC1)C(C)C)C1CCCCC1 (stereo not given in full)
2 | CC(=O)N[C@H](C(=O)N[C@H](C(=O)C1C[C@H](Oc2ccnc3cc(Cl)ccc23)C[C@H]1C(=O)CC1(C(=O)O)CC1)C(C)C)C1CCCCC1 (stereo not given in full)
7.94 | CC(=O)N[C@H](C(=O)N[C@H](C(=O)C1C[C@H](Oc2nccc3ccccc23)C[C@H]1C(=O)CC1(C(=O)O)CC1)C(C)C)C1CCCCC1 (stereo not given in full)
3.98 | CC(=O)N[C@H](C(=O)N[C@H](C(=O)C1C[C@H](Oc2cncc3ccccc23)C[C@H]1C(=O)CC1(C(=O)O)CC1)C(C)C)C1CCCCC1 (stereo not given in full)
50.1 | CC(=O)N[C@H](C(=O)N[C@H](C(=O)C1C[C@H](Oc2ccc(Cl)cc2)C[C@H]1C(=O)CC1(C(=O)O)CC1)C(C)C)C1CCCCC1 (stereo not given in full)
> 200 | CC(=O)N[C@H](C(=O)N[C@H](C(=O)C1C[C@H](Oc2ccccc2-c2ccc(C(=O)O)cc2)C[C@H]1C(=O)CC1(C(=O)O)CC1)C(C)C)C1CCCCC1 (stereo not given in full)
6.31 | CC(=O)N[C@H](C(=O)N[C@H](C(=O)C1C[C@H](Oc2cccc(-c3cccc([N+](=O)[O-])c3)c2)C[C@H]1C(=O)CC1(C(=O)O)CC1)C(C)C)C1CCCCC1 (stereo not given in full)
251 | CC(=O)N[C@H](C(=O)N[C@H](C(=O)C1C[C@H](Oc2cccc3cccnc23)C[C@H]1C(=O)CC1(C(=O)O)CC1)C(C)C)C1CCCCC1 (stereo not given in full)
6.31 | CC(=O)N[C@H](C(=O)N[C@H](C(=O)C1C[C@H](Oc2ccnc3cc(C(F)(F)F)ccc23)C[C@H]1C(=O)CC1(C(=O)O)CC1)C(C)C)C1CCCCC1 (stereo not given in full)
158 | CC(=O)N[C@H](C(=O)N[C@H](C(=O)C1C[C@H](Oc2ccncc2)C[C@H]1C(=O)CC1(C(=O)O)CC1)C(C)C)C1CCCCC1 (stereo not given in full)
20 | CC(=O)N[C@H](C(=O)N[C@H](C(=O)C1C[C@H](Sc2nc3ccccc3s2)C[C@H]1C(=O)CC1(C(=O)O)CC1)C(C)C)C1CCCCC1 (stereo not given in full)
50.1 | CC(=O)N[C@H](C(=O)N[C@H](C(=O)C1C[C@H](Oc2cccc(Br)c2)C[C@H]1C(=O)CC1(C(=O)O)CC1)C(C)C)C1CCCCC1 (stereo not given in full)
10 | CC(=O)N[C@H](C(=O)N[C@H](C(=O)C1C[C@H](Oc2ccc(I)cc2)C[C@H]1C(=O)CC1(C(=O)O)CC1)C(C)C)C1CCCCC1 (stereo not given in full)
0.794 | COc1ccc2c(O[C@H]3CC(C(=O)[C@@H](NC(=O)[C@@H](NC(C)=O)C4CCCCC4)C(C)C)[C@H](C(=O)CC4(C(=O)O)CC4)C3)ccnc2c1 (stereo not given in full)
31.6 | CC(=O)N[C@H](C(=O)N[C@H](C(=O)C1C[C@H](Oc2cccc(N3CCOCC3)c2)C[C@H]1C(=O)CC1(C(=O)O)CC1)C(C)C)C1CCCCC1 (stereo not given in full)

IC50 [µM] | SMILES
6.31 | CC(=O)Nc1cccc(-c2cccc(O[C@H]3CC(C(=O)[C@@H](NC(=O)[C@@H](NC(C)=O)C4CCCCC4)C(C)C)[C@H](C(=O)CC4(C(=O)O)CC4)C3)c2)c1 (stereo not given in full)
> 200 | CC(=O)N[C@H](C(=O)N[C@H](C(=O)C1C[C@H](Oc2ccccc2-c2ccccc2)C[C@H]1C(=O)CC1(C(=O)O)CC1)C(C)C)C1CCCCC1 (stereo not given in full)
31.6 | COc1ccc(-c2ccc(O[C@H]3CC(C(=O)[C@@H](NC(=O)[C@@H](NC(C)=O)C4CCCCC4)C(C)C)[C@H](C(=O)CC4(C(=O)O)CC4)C3)cc2)cc1 (stereo not given in full)
25.1 | CC(=O)N[C@H](C(=O)N[C@H](C(=O)C1C[C@H](Oc2ccccc2Br)C[C@H]1C(=O)CC1(C(=O)O)CC1)C(C)C)C1CCCCC1 (stereo not given in full)
25.1 | CC(=O)N[C@H](C(=O)N[C@H](C(=O)C1C[C@H](Oc2ccc(Br)cc2)C[C@H]1C(=O)CC1(C(=O)O)CC1)C(C)C)C1CCCCC1 (stereo not given in full)
> 1000 | CC(=O)N[C@H](C(=O)N[C@H](C(=O)C1C[C@H](O)C[C@H]1C(=O)CC1(C(=O)O)CC1)C(C)C)C1CCCCC1 (stereo not given in full)
100 | CC(=O)N[C@H](C(=O)N[C@H](C(=O)C1C[C@H](Oc2ccc(F)cc2)C[C@H]1C(=O)CC1(C(=O)O)CC1)C(C)C)C1CCCCC1 (stereo not given in full)
39.8 | CC(=O)N[C@H](C(=O)N[C@H](C(=O)C1C[C@H](Sc2ccc(Br)cc2)C[C@H]1C(=O)CC1(C(=O)O)CC1)C(C)C)C1CCCCC1 (stereo not given in full)
6.31 | CC(=O)N[C@H](C(=O)N[C@H](C(=O)C1C[C@H](Oc2cccc(-c3ccccc3)c2)C[C@H]1C(=O)CC1(C(=O)O)CC1)C(C)C)C1CCCCC1 (stereo not given in full)
5.01 | CC(=O)N[C@H](C(=O)N[C@H](C(=O)C1C[C@H](Oc2ccnc3ccccc23)C[C@H]1C(=O)CC1(C(=O)O)CC1)C(C)C)C1CCCCC1 (stereo not given in full)
200 | CC(=O)N[C@H](C(=O)N[C@H](C(=O)C1C[C@H](Oc2cccnc2)C[C@H]1C(=O)CC1(C(=O)O)CC1)C(C)C)C1CCCCC1 (stereo not given in full)
> 200 | COc1ccc(-c2ccccc2O[C@H]2CC(C(=O)[C@@H](NC(=O)[C@@H](NC(C)=O)C3CCCCC3)C(C)C)[C@H](C(=O)CC3(C(=O)O)CC3)C2)cc1 (stereo not given in full)
100 | CC(=O)N[C@H](C(=O)N[C@H](C(=O)C1C[C@H](Oc2ccc(Cl)c3cccnc23)C[C@H]1C(=O)CC1(C(=O)O)CC1)C(C)C)C1CCCCC1 (stereo not given in full)
20 | CC(=O)N[C@H](C(=O)N[C@H](C(=O)C1C[C@H](Oc2nc3ccccc3s2)C[C@H]1C(=O)CC1(C(=O)O)CC1)C(C)C)C1CCCCC1 (stereo not given in full)
10 | CC(=O)N[C@H](C(=O)N[C@H](C(=O)C1C[C@H](Sc2ccnc3cc(C(F)(F)F)ccc23)C[C@H]1C(=O)CC1(C(=O)O)CC1)C(C)C)C1CCCCC1 (stereo not given in full)
> 200 | CC(=O)N[C@H](C(=O)N[C@H](C(=O)C1C[C@H](Oc2cccnc2-c2ccsc2)C[C@H]1C(=O)CC1(C(=O)O)CC1)C(C)C)C1CCCCC1 (stereo not given in full)
